Results taken from US4758551A (priority 1986, dated 1988).
Numbered stars: 1 amine (or outer) side, 2 acyl side, 3 side chain; on linkers, the order of the positions; unused ones are H or OH. Peptide text beside a SMILES is read from it. γGlu = O=C(O)[C@H](CCC(=O)[*:2])N[*:1]

Key:
Male Swiss Webster mice [1] = experiment: Induction of glutathionuria by gamma-glutamyl compounds in mice (urinary glutathione); type: in vivo; conditions: for Urinary GSH: subcutaneous, 200 mM neutral solution, dose 4 mM per kilogram of body weight, urine collected for 1 hour
Method: Male Swiss Webster mice (20-27 g) were obtained from Taconic Farms (Germantown, N.Y.) and Hilltop Lab Animals (Scottsdale, Pa.).
(§1) The mice were fed ad libitum. Their urinary bladders were emptied by gentle abdominal pressure prior to subcutaneous injection of the gamma-glutamyl amino acids and urine was collected at 15 minute intervals for 1 hour in a tube containing 5 μl of 50% (w/v) 5-sulfosalicyclic acid. Elevated plasma glutathione levels were occasionally found after moderate abdominal pressure was applied to mice. For this reason, studies of urinary and plasma glutathione levels were carried out on different groups of mice.
(§2) Plasma, kidneys and livers were obtained and processed by well known means (see Anderson, M. E. et al, J. Biol. Chem. 255:9530-9533 (1980) and Anderson, M. E. et al, Methods Enzymol. 113:548-555 (1986)) and the concentration of glutathione therein was determined by the GSSG reductase-DTNB recycling assay (see Anderson, M. E. et al, Methods Enzymol. 113:548-555 (1986), Tietze, F., Analytical Biochem. 27:502-522 (1969) and Owens, C. et al, Biochem. J. 94:705-711 (1965)).
The urine samples were treated with 5mM dithiothreitol (pH 7.0) for 1 hour followed by derivatization with 2-vinylpyridine (see Griffith, O. W., Analytical Biochem. 106:207-212 (1980)). The derivatized samples were chromatographed on the amino acid analyzer using lithium citrate buffers (see Benson, J. V. et al, Anal. Biochem. 18:228-240 (1967)). The elution times for the vinylpyridine derivatives of gamma-glutamyl glutathione, gamma-glutamylcysteine, glutathione, cysteinylglycine and cysteine were 120, 163, 165, 220 and 235 minutes, respectively.
*The mice were injected subcutaneously with a 200 mM neutral solution of
the indicated amino acid (dose, 4 mM per kilogram of body weight) or with
an equivalent volume of saline. Urine was collected for 1 hour.

Male Swiss Webster mice [2] = conditions: cited from earlier work
Male Swiss Webster mice [3] = conditions: similar protocol (Griffith 1979); cited from earlier work
[4] = In vivo conversion of the administered gamma-glutamyl compound
Text: The values for the apparent Khi for a number of gamma-glutamyl amino acids using purified rat kidney gamma-glutamyl transpeptidase are shown in the Figure. These values were plotted against the urinary glutathione obtained in the in vivo studies and a fairly close correlation was found. That is, the apparent affinity of gamma-glutamyl transpeptidase or gamma-glutamyl amino acid substrates varies over about a 6-fold range. In contrast, the affinity for the corresponding free amino acids varies over a range of several hundred (see Tate, S. S. et al, J. Biol. Chem. 249:7593-7602 (1974)).

[5] = biological target: T1, purified rat kidney gamma-glutamyl transpeptidase (Rattus norvegicus, UniProt P07314); experiment: Gamma-glutamyl transpeptidase activity assay with L-gamma-glutamyl-p-nitroanilide (apparent Khi, Dixon plot); type: biochemical
T1 construct: Highly purified rate kidney gamma-glutamyl transpeptidase was prepared by well known means; from tissue; host or cells: rat kidney
Method: Highly purified rate kidney gamma-glutamyl transpeptidase was prepared by well known means (see Tate, S. S. et al, Methods Enzymol. 113:400-419 (1986)). Bovine and porcine gamma-glutamyl transpeptidase can be obtained from Sigma Chemical Co. (St. Louis, Mo.).
Gamma-glutamyl transpeptidase activity was assayed using L-gamma-glutamyl-p-nitroanilide and the rate of formation of p-nitroaniline at 405 nm at 37° C. was measured (see Orlowski, M. et al, Biochim. Biophys. Acta 73:679-681 (1973)). The 1 ml final volume enzyme reaction mixture employed contained 40 mM Tris-HCl (pH 7.5), 30 or 60 μM L-gamma-glutamyl-p-nitroanilide, 30 or 150 μM gamma-glutamyl amino acid and 0.115 units gamma-glutamyl transpeptidase. Two different concentrations of substrate were employed for kinetic analyses. The reaction was initiated by adding gamma-glutamyl transpeptidase. The absorbance scale was 0.02 or 0.05 to insure that initial rates were obtained. The apparent hydrolysis Ki (Khi) values were determined from a Dixon plot and normalized to the apparent Km value for 6 μM L-gamma-glutamyl-p-nitroanilide (see Thompson, G. A. et al, Biochem. Biophys, Res. Commun. 71:32-36 (1976)).
The values for the apparent Khi for a number of gamma-glutamyl amino acids using purified rat kidney gamma-glutamyl transpeptidase are shown in the Figure. […]

[6] = biological target: T1, purified rat kidney gamma-glutamyl transpeptidase; conditions: free amino acids (Tate 1974); cited from earlier work
Male Swiss Webster mice [7] = experiment: Glutathione levels of kidney, liver and blood plasma of mice after administration; type: in vivo; conditions: experimental period 1 hour
Method: as §1, §2

mice = conditions: cited from earlier work
[8] = mice, after administration of the hydrazide

T1 sequence (P07314 1-379 limits assumed): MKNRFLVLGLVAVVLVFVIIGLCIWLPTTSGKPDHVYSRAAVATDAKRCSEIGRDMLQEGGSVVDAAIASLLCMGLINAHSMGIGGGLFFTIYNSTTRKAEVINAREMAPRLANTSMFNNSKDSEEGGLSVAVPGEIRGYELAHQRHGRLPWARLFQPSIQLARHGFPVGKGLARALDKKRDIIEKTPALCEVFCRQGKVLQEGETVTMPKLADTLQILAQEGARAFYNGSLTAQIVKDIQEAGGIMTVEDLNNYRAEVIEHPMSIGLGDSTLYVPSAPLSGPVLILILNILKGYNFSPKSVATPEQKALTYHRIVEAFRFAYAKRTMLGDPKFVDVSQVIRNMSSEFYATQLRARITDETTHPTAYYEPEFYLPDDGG
T1 sequence (P07314 380-568 limits assumed): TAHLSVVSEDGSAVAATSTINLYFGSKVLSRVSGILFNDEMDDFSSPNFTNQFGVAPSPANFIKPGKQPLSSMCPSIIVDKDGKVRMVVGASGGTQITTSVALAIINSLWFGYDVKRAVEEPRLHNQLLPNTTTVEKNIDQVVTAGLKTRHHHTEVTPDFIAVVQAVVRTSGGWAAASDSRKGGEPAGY

| Compound | Urinary GSH (Male Swiss Webster mice [1]) [mM] | other results |
| --- | --- | --- |
| N[C@@H](CCCCNC(=O)CC[C@H](N)C(=O)O)C(=O)O [L-Gamma-- ε-L-Lys, L-Gamma-Glu-ε-L-Lys] | 0.77 ± 0.17 | – |
| CC(C)[C@H](NC(=O)[C@@H](N)CCC(=O)O)C(=O)O [L-glu-L-val, reference compound] (H-Glu-Val-OH) | < 0.03 | – |
| N[C@@H](CSSC[C@H](N)C(=O)O)C(=O)O [L-Cystine, reference compound] | < 0.03 | – |
| CC(C)[C@H](NC(=O)CC[C@H](N)C(=O)O)C(=O)O [L-Gamma-Glu-- L-Val, L-Gamma-Glu-L-Val] | 0.49 ± 0.25 | – |
| NC(=O)CC[C@H](NC(=O)CC[C@H](N)C(=O)O)C(=O)O [L-Gamma-Glu-- L-Gln, L-Gamma-Glu-L-Gln] | 1.17 ± 0.55 | – |
| N[C@@H](CCC(=O)N[C@@H](CCC(=O)O)C(=O)O)C(=O)O [L-Gamma-Glu-- L-Glu, L-Gamma-Glu-L-Glu] | 5.28 ± 1.05 | – |
| NC(CCC(=O)NNc1ccccc1C(=O)O)C(=O)O [L-gamma-glutamyl-(o-carboxy)phenylhydrazide] | – | plasma glutathione levels (Male Swiss Webster mice [2]; Griffith 1979): marked increases; decrease in kidney glutathione levels (Male Swiss Webster mice [2]; [8]): ~30%; decrease in liver glutathione levels (Male Swiss Webster mice [2]; [8]): ~13%; glutathione found in the urine (Male Swiss Webster mice [3]): 3.6 to 5.6 mM |
| CC(C)C[C@H](NC(=O)CC[C@H](N)C(=O)O)C(=O)O [L-Gamma-Glu-- L-Leu, L-Gamma-Glu-L-Leu] | 0.60 ± 0.07 | – |
| CSC[C@H](NC(=O)CC[C@H](N)C(=O)O)C(=O)NCC(=O)O [S--Methyl glutathione] | 5.21 ± 1.30 | – |
| C[C@H](NC(=O)CC[C@H](NC(=O)CC[C@H](N)C(=O)O)C(=O)O)C(=O)O [L-Gamma-Glu-- L-Gamma-Glu-- L-Ala, L-Gamma-Glu-L-Gamma-Glu-L-Ala] | 5.07 ± 0.73 | in vivo conversion [4]: rapidly converted in vivo to gamma-glutamyl alanine; induction of glutathionuria (Male Swiss Webster mice [1]): induced glutathionuria |
| CC[C@H](NC(=O)CC[C@H](N)C(=O)O)C(=O)O | 1.52 ± 0.38 | – |
| C[C@H](NC(=O)[C@@H](N)CCC(=O)O)C(=O)O [L-glu-L-ala, reference compound] (H-Glu-Ala-OH) | < 0.03 | – |
| C[C@H](NC(=O)CC[C@H](N)C(=O)O)C(=O)O [L-Gamma-Glu-- L-Ala, L-Gamma-Glu-L-Ala] | 5.69 ± 1.26 | gamma-glutamyl glutathione in the urine (Male Swiss Webster mice [1]): significant amounts; affinity for / interaction with gamma-glutamyl transpeptidase [5]: much higher affinity |
| NCCCC[C@H](N)C(=O)O [lysine] | – | acceptor substrate of gamma-glutamyl transpeptidase [6]: extremely poor acceptor substrates |
| CSCC[C@H](NC(=O)CC[C@@H](N)C(=O)O)C(=O)O [D-Gamma-Glu-- L-Met, D-Gamma-Glu-L-Met] | 0.18 ± 0.05 | – |
| N[C@@H](CCC(=O)N[C@@H](CS)C(=O)O)C(=O)O [gamma-glutamylcysteine] | – | effect on kidney glutathione levels (Male Swiss Webster mice [2]; Anderson 1983): increases; effect on liver glutathione levels (Male Swiss Webster mice [7]): does not affect |
| N[C@@H](CCC(=O)N[C@@H](CC(=O)O)C(=O)O)C(=O)O [L-Gamma-Glu-- L-Asp, L-Gamma-Glu-L-Asp] | 0.26 ± 0.10 | – |
| N[C@@H](CCC(=O)O)C(=O)N[C@@H](Cc1ccc(O)cc1)C(=O)O [L-glu-L-tyr, reference compound] (H-Glu-Tyr-OH) | < 0.03 | – |
| N[C@@H](CCC(=O)N[C@@H](CSSC[C@H](NC(=O)CC[C@H](N)C(=O)O)C(=O)O)C(=O)O)C(=O)O [L-Gamma-Glu-- L-(Cys)2, L-Gamma-Glu-L-(Cys)2] | 2.63 ± 0.33 | – |
| N[C@@H](CCC(=O)N[C@@H](Cc1ccc(O)cc1)C(=O)O)C(=O)O [L-Gamma-Glu-- L-Tyr, L-Gamma-Glu-L-Tyr] | 3.19 ± 0.80 | – |
| NCCCC[C@H](NC(=O)[C@@H](N)CCC(=O)O)C(=O)O [L-glu-L-(α )-lys, reference compound] (H-Glu-Lys-OH) | < 0.03 | – |
| CC[C@H](C)[C@H](NC(=O)CC[C@H](N)C(=O)O)C(=O)O [L-Gamma-Glu-- L-Ile, L-Gamma-Glu-L-Ile] | 1.00 ± 0.10 | – |
| CC(C)[C@H](N)C(=O)O [valine] | – | acceptor substrate of gamma-glutamyl transpeptidase [6]: extremely poor acceptor substrates |
| NNc1ccccc1C(=O)O [o-carboxyphenylhydrazine] | – | fatal dose (mice): more than 2 mM per kilogram of body weight |
| N[C@@H](CCC(=O)N[C@@H](CSSC[C@H](NC(=O)CC[C@H](N)C(=O)O)C(=O)O)C(=O)O)C(=O)O [(L-Gamma-Glu-- L-Cys)2, (L-gamma-Glu-L-Cys)2] | 5.77 ± 1.05 | Urinary GSH (Male Swiss Webster mice [1]; listed as gamma-glutamylcysteine disulfide): about 6 mM |
| N[C@@H](CCC(=O)NCC(=O)O)C(=O)O [L-Gamma-Glu-- Gly, L-Gamma-Glu-Gly] | 2.67 ± 0.40 | – |
| NC(=O)CC[C@H](N)C(=O)O [L-glutamine, L-(and D-)glutamine, reference compound] | < 0.03 | induction of glutathionuria (Male Swiss Webster mice [1]): ineffective; affinity for / interaction with gamma-glutamyl transpeptidase [5]: very poor gamma-glutamyl substrate |
| CSCC[C@H](NC(=O)CC[C@H](N)C(=O)O)C(=O)O [L-Gamma-Glu-- L-Met, L-Gamma-Glu-L-Met] | 8.54 ± 0.99 | – |
| N[C@@H](CCC(=O)NCC(=O)NCC(=O)O)C(=O)O [L-Gamma-Glu-- Gly--Gly, L-Gamma-Glu-Gly-Gly] (γGlu-Gly-Gly-OH) | 3.29 ± 1.16 | gamma-glutamyl glutathione in the urine (Male Swiss Webster mice [1]): significant amounts; urinary gamma-glutamyl cysteine relative to urinary glutathione (Male Swiss Webster mice [1]; vinylpyridine derivative, amino acid analyzer): about 10% |
